Assay results: patent US7700592B2, “α2C adrenoreceptor agonists” (Schering Corporation, priority 2005, dated 2010)

Molecular target: T1, α2C receptor (Homo sapiens, UniProt P18825)
T1 sequence (P18825 1-462): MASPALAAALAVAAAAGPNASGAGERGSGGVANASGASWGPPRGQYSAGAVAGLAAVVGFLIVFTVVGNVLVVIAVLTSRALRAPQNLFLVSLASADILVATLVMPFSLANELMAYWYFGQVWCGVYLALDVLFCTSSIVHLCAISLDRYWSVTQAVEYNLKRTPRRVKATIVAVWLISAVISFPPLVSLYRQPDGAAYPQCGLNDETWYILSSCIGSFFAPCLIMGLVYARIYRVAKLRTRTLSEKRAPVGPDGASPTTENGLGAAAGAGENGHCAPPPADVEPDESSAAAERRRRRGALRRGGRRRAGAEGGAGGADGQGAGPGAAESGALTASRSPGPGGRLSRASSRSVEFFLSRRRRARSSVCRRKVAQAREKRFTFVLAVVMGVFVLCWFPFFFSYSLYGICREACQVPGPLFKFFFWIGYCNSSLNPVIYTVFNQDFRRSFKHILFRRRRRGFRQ
Test: GTPγS assay, efficacy agonist activity (Emax) for α2C
Type: biochemical
Details: active agonist = efficacy at α2C ≧30% Emax; functionally selective = additionally efficacy at α2A ≦30% Emax (GTPγS assay)
Procedure, shortened: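 Emax measured in a [^35S]GTPγS functional assay at the human α2C adrenoceptor, following Umland et al. An efficacy of ≧30% Emax defines an active α2C agonist.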

| SMILES | Efficacy agonist activity (Emax, GTPγS assay) for α2C: evaluated as active or functionally selective agonist |
| --- | --- |
| CCN(C(=O)OCc1cn(C)cn1)c1ccc2c(c1)N(Cc1c[nH]cn1)CCO2 [Compound 287] | active or functionally selective agonists of the α2C receptor subtype |
| CCN(C(=O)OCc1cn2ccsc2n1)c1ccc2c(c1)N(Cc1c[nH]cn1)CCO2 [Compound 289] | active or functionally selective agonists of the α2C receptor subtype |
| CCN(C(=O)OCc1cn2ccccc2n1)c1ccc2c(c1)N(Cc1c[nH]cn1)CCO2 [Compound 290] | active or functionally selective agonists of the α2C receptor subtype |
| O=C(NCc1ccccn1)Nc1ccc2c(c1)N(Cc1c[nH]cn1)CCO2 [Compound 291] | active or functionally selective agonists of the α2C receptor subtype |
| O=C(NCCc1cccs1)Nc1ccc2c(c1)N(Cc1c[nH]cn1)CCO2 [Compound 297] | active or functionally selective agonists of the α2C receptor subtype |
| O=C(Nc1ccc2c(c1)N(Cc1c[nH]cn1)CCO2)OCCOc1ccccc1 [Compound 304] | active or functionally selective agonists of the α2C receptor subtype |
| O=C(Nc1ccc2c(c1)N(Cc1c[nH]cn1)CCO2)OCc1ccc(F)cc1 [Compound 305] | active or functionally selective agonists of the α2C receptor subtype |
| O=C(Nc1ccc2c(c1)N(Cc1c[nH]cn1)CCO2)OCc1cccc(F)c1 [Compound 306] | active or functionally selective agonists of the α2C receptor subtype |
| O=C(NCc1ccc(F)cc1)Nc1ccc2c(c1)N(Cc1c[nH]cn1)CCO2 [Compound 307] | active or functionally selective agonists of the α2C receptor subtype |
| O=C(NCc1cccc(F)c1)Nc1ccc2c(c1)N(Cc1c[nH]cn1)CCO2 [Compound 308] | active or functionally selective agonists of the α2C receptor subtype |
| CS(=O)(=O)c1ccc(COC(=O)Nc2ccc3c(c2)N(Cc2c[nH]cn2)CCO3)cc1 [Compound 309] | active or functionally selective agonists of the α2C receptor subtype |
| O=C(Nc1ccc2c(c1)N(Cc1c[nH]cn1)CCO2)OCc1nccs1 [Compound 310] | active or functionally selective agonists of the α2C receptor subtype |
| O=C(Nc1ccc2c(c1)N(Cc1c[nH]cn1)CCO2)OCc1cc2cccnc2s1 [Compound 311] | active or functionally selective agonists of the α2C receptor subtype |
| O=C(Nc1ccc2c(c1)N(Cc1c[nH]cn1)CCO2)OCc1nc2ccccc2s1 [Compound 312] | active or functionally selective agonists of the α2C receptor subtype |
| O=C(Nc1ccc2c(c1)N(Cc1c[nH]cn1)CCO2)OCc1ccnc(Cl)c1 [Compound 314] | active or functionally selective agonists of the α2C receptor subtype |
| O=C(Nc1ccc2c(c1)N(Cc1c[nH]cn1)CCO2)OCC1CCC1 [Compound 315] | active or functionally selective agonists of the α2C receptor subtype |
| O=C(Nc1ccc2c(c1)N(Cc1c[nH]cn1)CCO2)OCc1ccc2sccc2c1 [Compound 316] | active or functionally selective agonists of the α2C receptor subtype |
| Cc1cc(COC(=O)Nc2ccc3c(c2)N(Cc2c[nH]cn2)CCO3)no1 [Compound 317] | active or functionally selective agonists of the α2C receptor subtype |
| O=C(Nc1ccc2c(c1)N(Cc1c[nH]cn1)CCO2)OCc1cccnc1 [Compound 318] | active or functionally selective agonists of the α2C receptor subtype |
| CCN(C(=O)OCCSC)c1ccc2c(c1)N(Cc1c[nH]cn1)CCO2 [Compound 319] | active or functionally selective agonists of the α2C receptor subtype |
| CCN(C(=O)OCc1cc(C)nn1C)c1ccc2c(c1)N(Cc1c[nH]cn1)CCO2 [Compound 323] | active or functionally selective agonists of the α2C receptor subtype |
| CCN(C(=O)OCc1cc(C)n(C)n1)c1ccc2c(c1)N(Cc1c[nH]cn1)CCO2 [Compound 324] | active or functionally selective agonists of the α2C receptor subtype |
| CCN(c1ccc2c(c1)N(Cc1c[nH]cn1)CCO2)c1ccccn1 [Compound 326] | active or functionally selective agonists of the α2C receptor subtype |
| CCN(c1ccc2c(c1)N(Cc1c[nH]cn1)CCO2)c1nccs1 [Compound 327] | active or functionally selective agonists of the α2C receptor subtype |
| CCN(c1ccc2c(c1)N(Cc1c[nH]cn1)CCO2)c1cnccn1 [Compound 329] | active or functionally selective agonists of the α2C receptor subtype |
| CCN(c1ccc2c(c1)N(Cc1c[nH]cn1)CCO2)c1ncc([N+](=O)[O-])s1 [Compound 331] | active or functionally selective agonists of the α2C receptor subtype |
| CN(c1ccc2c(c1)N(Cc1c[nH]cn1)CCO2)c1ccccn1 [Compound 332] | active or functionally selective agonists of the α2C receptor subtype |
| CCN(c1ccc2c(c1)N(Cc1c[nH]cn1)CCO2)S(=O)(=O)CCN1C(=O)c2ccccc2C1=O [Compound 335] | active or functionally selective agonists of the α2C receptor subtype |
| Cc1cc(COC(=O)Nc2ccc3c(c2)N(Cc2c[nH]cn2)CCO3)n(C)n1 [Compound 340] | active or functionally selective agonists of the α2C receptor subtype |
